Test results as given in ChEMBL document CHEMBL1155170, “Rapid dissemination and diversity of CTX-M extended-spectrum beta-lactamase genes in commensal Escherichia coli isolates from healthy children from low-resource settings in Latin America” (2007).

Assays:
[1] = tested on: Escherichia coli; test: Antimicrobial activity against CTX-M extended-spectrum beta-lactamase producing commensal Escherichia coli isolates from healthy children assessed as percent resistant isolates by disc diffusion method; type: functional
[2] = tested on: Escherichia coli; test: Antimicrobial activity against CTX-M-15 extended-spectrum beta-lactamase producing commensal Escherichia coli isolates from healthy children assessed as percent resistant isolates by disc diffusion method; type: functional

| Compound | Activity [1] [%] | Activity [2] [%] |
| --- | --- | --- |
| O=C(O)c1cn(C2CC2)c2cc(N3CCNCC3)c(F)cc2c1=O [CIPROFLOXACIN] | 54 | 93 |
| CCn1cc(C(=O)O)c(=O)c2ccc(C)nc21 [NALIDIXIC ACID] | 57 | 93 |
| CN(C)[C@@H]1C(O)=C(C(N)=O)C(=O)[C@@]2(O)C(O)=C3C(=O)c4c(O)cccc4[C@@](C)(O)[C@H]3C[C@@H]12 [TETRACYCLINE] | 86 |  |
